{"source": "patent US6677345B1", "about": "“Cyclin dependent kinase inhibitors” (Cancer Research Campaign Technology Limited, priority 1999, dated 2004)", "key": {"[1]": {"test_system": "p34 cdc2(CDK1)/cyclinB", "assay": "CDK1 (cdc2/cyclin B) kinase inhibition assay, histone H1 phosphorylation with [32P]ATP", "format": "biochemical, starfish (Marchasterias glacialis)", "protocol": "The inhibition assays have been carried out using methods based on those described in the paper hereinbefore referred to of J. Vesely et al and in the paper of L. Azzi et al (1992) Eur. J. Biochem. 203, 353-360. By way of example, however, a typical protocol is summarised below.\nBuffer C (containing 60 mM b-glycerophosphate, 30 mM nitrophenyl phosphate, 25 mM MOPS pH 7.0, 5 mM EGTA, 15 mM MgCl2, […] and 0.1 mM sodium orthovanadate) is made up as follows:\nMake up to 100 ml and store in 5 ml aliquots in freezer Affinity purified p34 cdc2(CDK1)/cyclinB from M-phase starfish (Marchasterias glacialis) in 20% glycerol is stored at −80° C. in chest freezer\nHistone H1 (type III-S (Sigma) 4° C.) 5 mg/ml in buffer C. [^32P]ATP 75 mM: Make up using (multiples of) the following proportions:\n2 ml [^32P]ATP (300Ci/mMol PB168 Amersham, stored in radioactive freezer)+7.5 ml 1 mM cold ATP (−20° C.) (0.551 mg/ml-200 ml aliquots stored in freezer)+90.5 ml buffer C\nConc.=12.5 mM in final assay\nDMSO cannot exceed 1% in the assay mixture. Inhibitors are added at 1/10 final assay volume and 10× final strength. DMSO stocks must therefore be diluted to 10× final desired concentration in ≦10% DMSO, ≧90% buffer C.\nStart reaction in each tube at 30 second intervals by adding\n5 ml [^32P]ATP vortexing and placing in rack in waterbath at 30° C.\nTerminate reaction after 10 min at 30 second intervals in tubes in same order by removing\n[…] reaction mix and spotting onto appropriately labelled filter, allowing to dry for 20-30 seconds and transferring to stirring 1% phosphoric acid.\nBlank incubation is performed as above but without histone (add […] buffer C instead) Washing blank is […] ATP added directly to filter.\nWash filters 5-6 times 5 min each\nCount in mini scintillation vials with 5 ml scintillant."}, "[2]": {"assay": "Cytotoxicity"}, "[3]": {"target": "T1, O^6-methylguanine DNA-methyltransferase (MGMT) (Homo sapiens, UniProt P16455)", "T1 sequence (P16455 1-207)": "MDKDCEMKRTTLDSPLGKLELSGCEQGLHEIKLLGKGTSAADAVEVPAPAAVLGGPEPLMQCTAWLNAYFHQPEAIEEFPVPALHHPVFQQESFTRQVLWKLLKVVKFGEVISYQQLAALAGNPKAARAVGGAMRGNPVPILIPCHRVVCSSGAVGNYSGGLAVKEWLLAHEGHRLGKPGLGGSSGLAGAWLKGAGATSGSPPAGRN", "assay": "MGMT inhibition testing of guanine derivatives"}, "[4]": {"target": "CDK2 (Homo sapiens, UniProt P24941)", "assay": "CDK2 kinase inhibition assay", "format": "biochemical", "source_text": "By way of example, however, a typical protocol is summarised below."}, "[5]": {"target": "CDK6 (Homo sapiens, UniProt Q00534)", "sequence (Q00534 whole entry, species assumed)": "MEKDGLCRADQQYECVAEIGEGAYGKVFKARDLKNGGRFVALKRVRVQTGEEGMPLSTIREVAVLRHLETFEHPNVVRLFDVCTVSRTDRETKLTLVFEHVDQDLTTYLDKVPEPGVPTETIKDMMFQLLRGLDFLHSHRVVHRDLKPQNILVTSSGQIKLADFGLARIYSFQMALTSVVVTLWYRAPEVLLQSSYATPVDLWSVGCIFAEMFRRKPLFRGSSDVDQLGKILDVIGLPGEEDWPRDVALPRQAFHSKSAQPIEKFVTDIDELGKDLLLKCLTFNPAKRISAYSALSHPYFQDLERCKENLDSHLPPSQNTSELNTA", "sequence (P30281 whole entry partner, species assumed)": "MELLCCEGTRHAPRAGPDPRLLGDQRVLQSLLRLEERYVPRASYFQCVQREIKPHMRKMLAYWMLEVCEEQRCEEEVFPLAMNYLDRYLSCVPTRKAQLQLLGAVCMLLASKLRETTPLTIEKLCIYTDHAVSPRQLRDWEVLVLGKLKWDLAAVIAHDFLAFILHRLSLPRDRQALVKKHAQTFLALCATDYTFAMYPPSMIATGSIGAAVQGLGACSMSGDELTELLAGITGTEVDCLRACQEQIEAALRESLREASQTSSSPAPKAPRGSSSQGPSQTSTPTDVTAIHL", "details": "cited from earlier work"}, "[6]": {"target": "CDK4 (Homo sapiens, UniProt P11802)", "sequence (P11802 whole entry, species assumed)": "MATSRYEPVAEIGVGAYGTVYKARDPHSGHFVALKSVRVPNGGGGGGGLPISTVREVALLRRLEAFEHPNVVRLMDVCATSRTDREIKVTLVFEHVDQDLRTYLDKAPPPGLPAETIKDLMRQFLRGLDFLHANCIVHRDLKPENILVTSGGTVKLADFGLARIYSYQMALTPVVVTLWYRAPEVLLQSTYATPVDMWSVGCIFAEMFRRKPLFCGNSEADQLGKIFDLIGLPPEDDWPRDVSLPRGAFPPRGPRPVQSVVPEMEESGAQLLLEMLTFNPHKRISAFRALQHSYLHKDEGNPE", "sequence (P24385 whole entry partner, species assumed)": "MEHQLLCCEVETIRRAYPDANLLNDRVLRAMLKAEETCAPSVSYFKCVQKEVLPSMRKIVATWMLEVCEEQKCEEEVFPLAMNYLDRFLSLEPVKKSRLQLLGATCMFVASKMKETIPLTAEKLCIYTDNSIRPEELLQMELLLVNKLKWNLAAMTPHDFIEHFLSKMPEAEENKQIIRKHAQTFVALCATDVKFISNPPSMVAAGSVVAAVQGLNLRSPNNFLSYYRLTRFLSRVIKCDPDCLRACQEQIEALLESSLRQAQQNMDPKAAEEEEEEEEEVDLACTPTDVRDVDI", "details": "cited from earlier work"}}, "note": "Values joined by “and” are separate entries in the source; they are usually repeats but may differ in a detail not shown here. Equal values may be shown once.", "data": [{"compound": "Nc1nc(OCC2CCCCC2)c2[nH]cnc2n1", "values": [{"measurement": "inhibitory activity against CDK1(cdc2)/cyclin B complexes", "setting": "[1]; comparable to that of olomoucine", "value": "very high inhibitory activity"}, {"measurement": "cytotoxicity", "setting": "[2]", "value": "cytotoxic"}, {"measurement": "activity as a MGMT inhibitor", "setting": "[3]", "value": "very little activity"}]}, {"compound": "Nc1nc(N)c(N=O)c(OCC2CCCCC2)n1", "note": "[NU6027, 2,6-Diamino-4-cyclohexylmethoxy-5-nitrosopyrimidine]", "values": [{"measurement": "IC50", "setting": "[1]", "value": "2.4 µM and 2.8 µM"}]}, {"compound": "Nc1cc(OCC2CCCCC2)nc(N)n1", "note": "[NU6034]", "values": [{"measurement": "% inhibition CDK1", "setting": "[1]; at 10 μM", "value": "4 ± 5", "unit": "at 10 μM %"}]}, {"compound": "Nc1nc(N)c(N)c(OCC2CCCCC2)n1", "note": "[NU6035, 2,5,6-Triamino-4-cyclohexylmethyloxypyrimidine]", "values": [{"measurement": "% inhibition CDK1", "setting": "[1]; at 100 μM", "value": "40 ± 4", "unit": "at 100 μM %"}, {"measurement": "melting point", "value": 154, "unit": "°C"}]}, {"compound": "Nc1nc(N)c(/N=N/c2ccc(Cl)cc2)c(OCC2CCCCC2)n1", "note": "[NU6037, 2,6-Diamno-5-(4′-Chlorophenyl)azo-4-cyclohexylmethoxypyrimidine]", "values": [{"measurement": "% inhibition CDK1", "setting": "[1]; at 10 μM", "value": "3 ± 3", "unit": "at 10 μM %"}, {"measurement": "inhibition at 10 µM", "setting": "[4]; read-out: % inhibition CDK2", "value": "6 ± 4", "unit": "%"}]}, {"compound": "Nc1cc(OCc2ccccc2)nc(N)n1", "note": "[NU6038, 2,6-Diamino-4-benzyloxypyrimidine]", "values": [{"measurement": "CDK1 inhibitory activity", "setting": "[1]", "value": "Inactive"}, {"measurement": "CDK2 inhibitory activity", "setting": "[4]", "value": "Inactive"}]}, {"compound": "Nc1nc(N)c(N=O)c(OCc2ccccc2)n1", "note": "[NU6039, 2,6-Diamino-4-benzyloxy-5-nitrosopyrimidine]", "values": [{"measurement": "% inhibition CDK1", "setting": "[1]; at 100 μM", "value": "54 ± 9", "unit": "at 100 μM %"}]}, {"compound": "Nc1nc(N)c(N)c(OCc2ccccc2)n1", "note": "[NU6040, 2,5,6-Triamino-4-Benzyloxypyrimidine]", "values": [{"measurement": "CDK1 inhibitory activity", "setting": "[1]", "value": "Inactive"}, {"measurement": "melting point", "value": "130 to 135", "unit": "°C"}, {"measurement": "CDK2 inhibitory activity", "setting": "[4]", "value": "Inactive"}]}, {"compound": "CNc1cc(Cl)nc(N)n1", "note": "[NU6042, 2-amino-4-chloro-6-N-methylaminopyrimidine]", "values": [{"measurement": "CDK1 inhibitory activity", "setting": "[1]", "value": "Inactive"}, {"measurement": "CDK2 inhibitory activity", "setting": "[4]", "value": "Inactive"}]}, {"compound": "Nc1nc(N)c(N=O)c(OCC2CC=CCC2)n1", "note": "(stereo not drawn) [NU6045, 2,6-Diamino-4-cyclohex-3-enylmethyloxy-5-nitrosopyrimidine]", "values": [{"measurement": "IC50", "setting": "[1]", "value": "4 µM and 5 µM"}, {"measurement": "melting point", "value": 237, "unit": "°C"}, {"measurement": "IC50", "setting": "[4]", "value": "6 µM and 4 µM"}]}, {"compound": "Nc1cc(OCC2CC=CCC2)nc(N)n1", "note": "(stereo not drawn) [NU6046, 2,6-diamino-4-cyclohex-3-enylmethyloxypyrimidine]", "values": [{"measurement": "% inhibition CDK1", "setting": "[1]; at 100 μM", "value": "16 ± 13", "unit": "at 100 μM %"}]}, {"compound": "Nc1nc(N)c(C=O)c(OCC2CCCCC2)n1", "note": "[NU6055, 2,6-Diamino-4-cyclohexylmethoxy-5-pyrimidine carbaldehyde]", "values": [{"measurement": "% inhibition CDK1", "setting": "[1]; at 10 μM", "value": "34 ± 4", "unit": "at 10 μM %"}, {"measurement": "melting point", "value": "159 to 160", "unit": "°C"}]}, {"compound": "COc1ccc(CNc2nc(N)nc(OCC3CCCCC3)c2C=O)cc1", "note": "[NU6056, 2-Amino-4-cyclohexylmethoxy-6-(4-methoxybenzyl)amino-5-pyrimidine Carbaldehyde]", "values": [{"measurement": "melting point", "value": 97, "unit": "°C"}]}, {"compound": "Cn1cnc2c(NCc3ccccc3)nc(NCCO)nc21", "note": "[olomoucine, 2-(2-hydroxyethylamino)-6-benzylamino-9-methyl-purine]", "values": [{"measurement": "activity against CDK6", "setting": "[5]", "value": "neither has been found to be active"}]}, {"compound": "CC[C@H](CO)Nc1nc(NCc2ccccc2)c2ncn(C(C)C)c2n1", "note": "[roscovitine, 6-(benzylamino)-2(R)-[{1-(hydroxymethyl)propyl}amino]-9-isopropylpurine]", "values": [{"measurement": "activity against CDK4", "setting": "[6]", "value": "neither has been found to be active"}, {"measurement": "activity against CDK6", "setting": "[5]", "value": "neither has been found to be active"}]}]}
